The target of assay [1] is T1, α-1A adrenoreceptor (rat submaxillary gland) (Rattus norvegicus, UniProt P43140).
T1 sequence (P43140 1-466): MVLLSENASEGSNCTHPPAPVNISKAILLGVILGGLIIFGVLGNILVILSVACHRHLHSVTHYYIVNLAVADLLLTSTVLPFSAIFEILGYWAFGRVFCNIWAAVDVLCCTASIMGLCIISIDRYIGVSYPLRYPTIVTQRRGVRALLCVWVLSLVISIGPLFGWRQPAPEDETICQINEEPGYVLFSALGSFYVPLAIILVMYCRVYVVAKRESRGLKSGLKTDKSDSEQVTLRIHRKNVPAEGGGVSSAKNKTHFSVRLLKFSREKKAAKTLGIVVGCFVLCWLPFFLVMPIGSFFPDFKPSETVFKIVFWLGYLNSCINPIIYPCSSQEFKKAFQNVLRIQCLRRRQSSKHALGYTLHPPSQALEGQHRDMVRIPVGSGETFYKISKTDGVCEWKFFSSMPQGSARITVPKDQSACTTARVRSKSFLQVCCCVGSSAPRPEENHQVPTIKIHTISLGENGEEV
Kind of assay: biochemical. The assay is classed as binding. As to conditions: read-out: Radioligand Binding (Ki, nM) 1A (Rat). The essentials:
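Radioligand binding to α-1A sites in membrane homogenates of rat submaxillary gland, run after Greengrass and Bremner. Bound radioactivity counted by liquid scintillation.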

The test system of assay [2] is α-1A adrenoreceptor. Kind of assay: Functional antagonism: inhibition of PE-induced contraction of canine prostate strips (Schild plot). The assay is classed as cell-based. As to conditions: phenylephrine-induced contraction. From the text: Canine prostate strips were used in vitro as previously described (Hieble, J.P., Boyce, A.J. and Caine, M., Fed. Proc., 45: 2609-2614 (1986)), to determine antagonist potencies against phenylephrine-induced contractions.
(§1) Functional assays indicative of pharmacologically defined α-1 adrenoreceptors were used to further characterize compounds. Inhibition of phenylephrine (PE)-induced contraction of canine prostate smooth muscle can be correlated with α-1A adrenoreceptor activation. […] For each of these models, agonist dose response curves were repeated against increasing concentrations of test agent to derive a Schild plot [log ([…]) against log (molarity of test agent)] to determine the pA2.

The target in assay [3] is T2, α-1A adrenoreceptor (Rattus norvegicus, UniProt P43140).
T2 sequence (P43140 1-466): T1 sequence (P43140 1-466)
In words: cell-based. As to conditions: phenylephrine-induced contraction; Schild plot; read-out: In Vitro Characterization (pA2) Rat Vas (converted).
Text: as §1

The next assay deals with T3, α-1B adrenoreceptor (Rattus norvegicus, UniProt P15823).
T3 construct: from tissue; host or cells: rat spleen
T3 sequence (P15823 1-515): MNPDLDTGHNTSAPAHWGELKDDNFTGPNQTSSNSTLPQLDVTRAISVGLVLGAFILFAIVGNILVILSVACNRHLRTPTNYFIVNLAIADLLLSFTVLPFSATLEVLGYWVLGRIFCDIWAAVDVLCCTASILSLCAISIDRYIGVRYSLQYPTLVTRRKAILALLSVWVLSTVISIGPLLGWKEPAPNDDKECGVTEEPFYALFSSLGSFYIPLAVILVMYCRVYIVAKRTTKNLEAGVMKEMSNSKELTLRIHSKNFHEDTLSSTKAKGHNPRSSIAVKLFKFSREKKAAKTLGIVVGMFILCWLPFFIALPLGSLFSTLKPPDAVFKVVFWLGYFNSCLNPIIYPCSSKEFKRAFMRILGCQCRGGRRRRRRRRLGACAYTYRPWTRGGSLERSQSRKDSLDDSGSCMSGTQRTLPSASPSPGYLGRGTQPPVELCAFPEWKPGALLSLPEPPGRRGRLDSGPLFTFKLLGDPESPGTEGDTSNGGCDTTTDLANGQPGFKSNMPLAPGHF
Kind of assay: cell-based. As to conditions: phenylephrine-induced contraction; Schild plot; read-out: In Vitro Characterization (pA2) Rat Spleen (converted).
Text: as §1

The mark [4] stands for this setting: [3H]-prazosin radioligand, rat submaxillary gland membranes.

Where a name gives a salt, the structure may show the parent alone. Read-outs that look alike come from different tables or passages of the source.

In the case of `COc1ccc2c(c1)OC[C@H]1CN(CCn3c(=O)[nH]c4c(sc5ccccc54)c3=O)C[C@@H]21.Cl` (racemic) [Example 63, 3-[2-((±)-cis-7-Methoxy-1,2,3,3a,4,9b-hexahydro-[1]-benzopyrano[3,4-c]pyrrol-2-yl)ethyl]-[1]benzthieno[3,2-d]pyrimidine-2,4(1H,3H)-dione hydrochloride], the Ki in assay [1] was 51.2 nM. For the same compound, the “In Vitro Characterization (pA2) Dog Prostate” value with α-1A adrenoreceptor [2] was 6.65.

In the case of `COc1cccc2c1[C@@H]1CN(CCCCn3c(=O)[nH]c4c(sc5nc(C)ccc54)c3=O)C[C@@H]1CO2` [Example 35, 3-[4-((3aR,9bR)-cis-9-Methoxy-1,2,3,3a,4,9b-hexahydro-[1]-benzopyrano[3,4-c]pyrrol-2-yl)butyl]-7-methyl-pyrido[3',2':4,5]thieno[3,2-d]pyrimidine-2,4(1H,3H)-dione hydrochloride], the inhibitory constant (Ki) in assay [1] (setting [4]) stood at 0.312 nM. For the same compound, the Kb on α-1A adrenoreceptor [3] was 1.26 nM; on α-1B adrenoreceptor, 11 nM.

With `COc1cccc2c1[C@@H]1CN(CCCCn3c(=O)[nH]c4c(sc5nccc(OC)c54)c3=O)C[C@@H]1CO2` [Example 36, 3-[4-((3aR,9bR)-cis-9-Methoxy-1,2,3,3a,4,9b-hexahydro-[1]-benzopyrano[3,4-c]pyrrol-2-yl)butyl]-9-methoxy-pyrido[3',2':4,5]thieno[3,2-d]pyrimidine-2,4(1H,3H)-dione hydrochloride], in assay [1] (setting [4]), the inhibition constant (Ki) stood at 0.539 nM. Further, the Kb was 0.537 nM at α-1A adrenoreceptor [3] and 8.13 nM on α-1B adrenoreceptor.

For `COc1cccc2c1[C@@H]1CN(CCCCn3c(=O)[nH]c4c(sc5ccc(Cl)nc54)c3=O)C[C@@H]1CO2` [Example 37, 3-[4-((3aR,9bR)-cis-9-Methoxy-1,2,3,3a,4,9b-hexahydro-[1]-benzopyrano[3,4-c]pyrrol-2-yl)butyl]-8-chloro-pyrido[2',3':4,5]thieno[3,2-d]pyrimidine-2,4(1H,3H)-dione hydrochloride], the Ki in assay [1] (setting [4]) stood at 0.264 nM. Also, the Kb on α-1A adrenoreceptor [3] is 0.204 nM; at α-1B adrenoreceptor, 9.33 nM.

For `COc1cccc2c1[C@@H]1CN(CCCCn3c(=O)[nH]c4c(sc5cc(Cl)cnc54)c3=O)C[C@@H]1CO2` [Example 38, 3-[4-((3aR,9bR)-cis-9-Methoxy-1,2,3,3a,4,9b-hexahydro-[1]-benzopyrano[3,4-c]pyrrol-2-yl)butyl]-7-chloro-pyrido[2',3':4,5]thieno[3,2-d]pyrimidine-2,4(1H,3H)-dione hydrochloride], the Ki in assay [1] (setting [4]) amounted to 0.376 nM. Moreover, the Kb is 0.282 nM at α-1A adrenoreceptor [3] and 19.5 nM on α-1B adrenoreceptor.

On to `COc1cccc2c1[C@@H]1CN(CCCCn3c(=O)[nH]c4c(sc5nc(-c6ccccc6)cnc54)c3=O)C[C@@H]1CO2` [Example 40, 3-[4-((3aR,9bR)-cis-9-Methoxy-1,2,3,3a,4,9b-hexahydro-[1]-benzopyrano[3,4-c]pyrrol-2-yl)butyl]-7-phenyl-pyrazino[2',3':4,5]thieno[3,2-d]pyrimidine-2,4(1H,3H)-dione hydrochloride], for which, in assay [1] (setting [4]), the inhibition constant Ki was 22.8 nM. For the same compound, the Kb is 3.02 nM at α-1A adrenoreceptor [3] and 759 nM at α-1B adrenoreceptor.

With `COc1cccc2c1[C@@H]1CN(CCCCn3c(=O)[nH]c4c(sc5ccncc54)c3=O)C[C@H]1CO2` [Example 41, 3-[4-((3aS,9bR)-trans-9-Methoxy-1,2,3,3a,4,9b-hexahydro-[1]-benzopyrano[3,4-c]pyrrol-2-yl)butyl]-pyrido[3',4':4,5]thieno[3,2-d]pyrimidine-2,4(1H,3H)-dione dihydrochloride], the inhibition constant Ki in assay [1] (setting [4]) amounted to 0.069 nM. The Kb on α-1A adrenoreceptor [3] was 0.355 nM; at α-1B adrenoreceptor it was 3.98 nM.

For the compound `COc1cccc2c1[C@@H]1CN(CCCCn3c(=O)[nH]c4c(sc5cnccc54)c3=O)C[C@H]1CO2` [Example 42, 3-[4-((3aS,9bR)-trans-9-Methoxy-1,2,3,3a,4,9b-hexahydro-[1]-benzopyrano[3,4-c]pyrrol-2-yl)butyl]-pyrido[4',3':4,5]thieno[3,2-d]pyrimidine-2,4(1H,3H)-dione dihydrochloride], in assay [1] (setting [4]), the inhibition constant Ki was found to be 0.073 nM. The Kb at α-1A adrenoreceptor [3] was 0.257 nM; at α-1B adrenoreceptor it was 2.75 nM.

On to `COc1cccc2c1[C@@H]1CN(CCCCn3c(=O)[nH]c4c(sc5ncccc54)c3=O)C[C@H]1CO2` [Example 44, 3-[4-((3aS,9bR)-trans-9-Methoxy-1,2,3,3a,4,9b-hexahydro-[1]-benzopyrano[3,4-c]pyrrol-2-yl)butyl]-pyrido[3',2':4,5]thieno[3,2-d]pyrimidine-2,4(1H,3H)-dione hydrochloride], for which, in assay [1] (setting [4]), the inhibition constant Ki is 0.043 nM. In addition, the Kb on α-1A adrenoreceptor [3] is 0.11 nM; at α-1B adrenoreceptor, 4.47 nM.

Regarding `COc1cccc2c1[C@@H]1CN(CCCCn3c(=O)[nH]c4c(sc5nc(C)ccc54)c3=O)C[C@H]1CO2` [Example 45, 3-[4-((3aS,9bR)-trans-9-Methoxy-1,2,3,3a,4,9b-hexahydro-[1]-benzopyrano[3,4-c]pyrrol-2-yl)butyl]-7-methyl-pyrido[3',2':4,5]thieno[3,2-d]pyrimidine-2,4(1H,3H)-dione hydrochloride], the Ki in assay [1] (setting [4]) was 0.125 nM. In addition, the Kb at α-1A adrenoreceptor [3] is 0.257 nM; on α-1B adrenoreceptor, 1.29 nM.

Take `COc1ccc2c(n1)sc1c(=O)n(CCCCN3C[C@H]4COc5cccc(OC)c5[C@@H]4C3)c(=O)[nH]c12` [Example 46, 3-[4-((3aS,9bR)-trans-9-Methoxy-1,2,3,3a,4,9b-hexahydro-[1]-benzopyrano[3,4-c]pyrrol-2-yl)butyl]-7-methoxy-pyrido[3',2':4,5]thieno[3,2-d]pyrimidine-2,4(1H,3H)-dione hydrochloride]: the Ki in assay [1] (setting [4]) amounted to 0.353 nM. Also, the Kb on α-1A adrenoreceptor [3] was 0.162 nM; on α-1B adrenoreceptor it was 7.59 nM.

For the compound `COc1cccc2c1[C@@H]1CN(CCCCn3c(=O)[nH]c4c(sc5nc(Cl)ccc54)c3=O)C[C@H]1CO2` [Example 47, 3-[4-((3aS,9bR)-trans-9-Methoxy-1,2,3,3a,4,9b-hexahydro-[1]-benzopyrano[3,4-c]pyrrol-2-yl)butyl]-7-chloro-pyrido[3',2':4,5]thieno[3,2-d]pyrimidine-2,4(1H,3H)-dione hydrochloride], the Ki in assay [1] (setting [4]) came to 0.245 nM. The Kb was 1.12 nM at α-1A adrenoreceptor [3] and 11.2 nM at α-1B adrenoreceptor.

Take `COc1cccc2c1[C@@H]1CN(CCCCn3c(=O)[nH]c4c(sc5ccc(OC(C)C)nc54)c3=O)C[C@H]1CO2` [Example 51, 3-[4-((3aS,9bR)-trans-9-Methoxy-1,2,3,3a,4,9b-hexahydro-[1]-benzopyrano[3,4-c]pyrrol-2-yl)butyl]-8-isopropoxy-pyrido[2',3':4,5]thieno[3,2-d]pyrimidine-2,4(1H,3H)-dione hydrochloride]: the Ki in assay [1] (setting [4]) came to 1.19 nM. The Kb on α-1A adrenoreceptor [3] is 0.631 nM; at α-1B adrenoreceptor, 33.9 nM.

In the case of `COc1cccc2c1[C@@H]1CN(CCCCn3c(=O)[nH]c4c(sc5c(Cl)nccc54)c3=O)C[C@@H]1CO2` [Example 53, 3-[4-((3aR,9bR)-cis-9-Methoxy-1,2,3,3a,4,9b-hexahydro-[1]-benzopyrano[3,4-c]pyrrol-2-yl)butyl]-6-chloro-pyrido[4',3':4,5]thieno[3,2-d]pyrimidine-2,4(1H,3H)-dione], in assay [1] (setting [4]), the inhibition constant Ki turned out to be 0.872 nM. In addition, the Kb was 0.49 nM at α-1A adrenoreceptor [3] and 63.1 nM on α-1B adrenoreceptor.

In general, Ki refers to the equilibrium dissociation constant of an inhibitor or competing ligand from its target.

The record behind these values is patent EP0942911B1, “BENZOPYRANOPYRROLE AND BENZOPYRANOPYRIDINE ALPHA-1 ADRENERGIC COMPOUNDS” (Abbott Laboratories, priority 1996, dated 1998).
